Some test systems named below: OVCAR-8 ovarian; A498 renal; A549 NSCLC; HCC-2998 colon; SR leukemia; CAKI-1 renal; PC-3 prostate; RPMI-8226 leukemia; MCF7 breast; MDA-N.
Holding throughout (test): NCI tumour cell line growth inhibition, 48 h

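Where inhibition never reached the appropriate level, the endpoint shown equals the highest concentration tested. Otherwise, values were interpolated linearly from a five-concentration, 48-hour dose response in 96-well plates. GI50 = concentration required for 50% inhibition of growth. TGI is the concentration that stops growth completely.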

On to `O=C(NC1(C(=O)NNc2nnc(-c3ccccc3)c(-c3ccccc3)n2)C(c2ccccc2)C(c2ccccc2)=NN1c1ccccc1)c1ccccc1` (stereo not drawn), for which the TGI in the test with OVCAR-8 ovarian, in the test on A498 renal, with A549 NSCLC, with HCC-2998 colon, in the test on SR leukemia and in the test on CAKI-1 renal was above 100 µM each time. The TGI in the test on PC-3 prostate was above 100 µM.

As for `CCOC(=O)c1c2c(n(-c3ccc(OC)cc3)c1C)C(=O)C(=O)c1ccccc1-2`, the TGI in the test with OVCAR-8 ovarian worked out at 2.76 µM; in the test with A498 renal, 3.97 µM; in the test with A549 NSCLC, 4.46 µM; in the test on RPMI-8226 leukemia it was 2.86 µM; in the test with HCC-2998 colon, 3.38 µM; in the test with CAKI-1 renal, 2.82 µM. Also, the TGI in the test with MCF7 breast came out at 6.24 µM; with PC-3 prostate, 5.7 µM. The GI50 with A498 renal was 1.76 µM.

With `CCOP(=O)(OCC)/C(=C\N1C(=O)CC(=O)NC1=S)C(=O)OC`, the TGI with OVCAR-8 ovarian, with A498 renal, in the test with A549 NSCLC, with HCC-2998 colon, in the test with MDA-N and in the test with CAKI-1 renal was above 100 µM throughout. The compound further came in with a TGI in the test with MCF7 breast above 100 µM.

For the compound `Fc1ccc(C2CC(c3cccc(Nc4ccncc4)c3)=NN2c2cc(Cl)cc(Cl)c2)cc1` (stereo not drawn), the GI50 was 2.2 µM in the test with OVCAR-8 ovarian; 1.17 µM with A498 renal; 1.6 µM in the test on HCC-2998 colon; 2.06 µM in the test with SR leukemia; 1.54 µM in the test on CAKI-1 renal; 1.95 µM in the test on MCF7 breast. For the same compound, in the test with PC-3 prostate, the GI50 was 1.55 µM. The TGI in the test with OVCAR-8 ovarian came out at 4.77 µM; with A498 renal, 2.6 µM; with HCC-2998 colon, 2.96 µM; in the test on SR leukemia, 4.92 µM; in the test with CAKI-1 renal it was 2.92 µM; in the test on MCF7 breast, 4.37 µM. Besides, in the test with PC-3 prostate, the TGI came out at 3.14 µM.

For the compound `O=C1c2ccccc2C(=O)c2c1ccc1c2N=C(c2ccc(F)cc2)CC(c2ccc(Cl)c(Cl)c2)N1` (stereo not drawn), the TGI came out at 26.6 µM with OVCAR-8 ovarian; 54.9 µM with A498 renal; 47.6 µM in the test on A549 NSCLC; 19.3 µM in the test with RPMI-8226 leukemia; 27.8 µM in the test on HCC-2998 colon; 54.4 µM in the test with SR leukemia. In the test on CAKI-1 renal, this compound displayed a TGI of 17 µM.

With `COc1ccc(Oc2nc3ccc(C(F)(F)F)cc3nc2-c2ccccc2)cc1`, the TGI with A498 renal, in the test with RPMI-8226 leukemia, in the test on HCC-2998 colon, with SR leukemia, with CAKI-1 renal and in the test with MCF7 breast was above 100 µM each time. The compound also yielded a TGI in the test on PC-3 prostate above 100 µM.

For the compound `CSc1nc(NC2OCC(O)C(O)C2O)c(N)c(=O)n1C` (stereo not drawn), the TGI in the test on OVCAR-8 ovarian, with A498 renal, in the test on A549 NSCLC, in the test on RPMI-8226 leukemia, in the test on HCC-2998 colon and in the test on MCF7 breast was above 100 µM throughout.

As to `C=C(CC(=O)Nc1ccc(C(=O)OC)o1)C(=O)OC`, the TGI in the test on OVCAR-8 ovarian was above 100 µM; in the test on A498 renal, above 100 µM; in the test with A549 NSCLC it was 35.8 µM; in the test with CAKI-1 renal, 41.9 µM; in the test with MCF7 breast it was 54 µM; with PC-3 prostate, 58.9 µM.

Take `COc1ccc(C[C@H](N)C(=O)N2C[C@H](CO)C[C@H](n3ccc(=O)[nH]c3=O)C2)cc1`: the TGI with OVCAR-8 ovarian, in the test on A549 NSCLC, in the test on RPMI-8226 leukemia, with HCC-2998 colon, in the test with SR leukemia and in the test on CAKI-1 renal was above 100 µM each time.

Take `[N-]=[N+]=NC1CC(n2cc(COCC(F)(F)F)c(=O)[nH]c2=O)OC1CO` (stereo not drawn): the TGI in the test on OVCAR-8 ovarian, in the test with A498 renal, in the test on A549 NSCLC, in the test with RPMI-8226 leukemia, in the test with HCC-2998 colon and in the test with CAKI-1 renal was above 100 µM in each case.

Take `Oc1ccc2c(c1)CC[N+]1=C2CCC2CCCC21` (stereo not drawn): the TGI in the test with OVCAR-8 ovarian, in the test with A549 NSCLC, with HCC-2998 colon and in the test with CAKI-1 renal was above 100 µM each time.

Consider `CC(=O)OCc1cc(=O)n(C)c2c3c4c(cc12)c(C)cc(=O)n4CO3`, for which the TGI with OVCAR-8 ovarian came out at 12.7 µM; with A498 renal, 5.3 µM; in the test with A549 NSCLC it was 21.1 µM; with RPMI-8226 leukemia, 11.1 µM; in the test on HCC-2998 colon it was 4.61 µM; with CAKI-1 renal, 33.9 µM. The compound also displayed a TGI in the test on MCF7 breast of 17 µM.

Take `CCOC(=O)CCc1c(C(=O)OCC)[nH]c(/C=C2\NC(=O)C(C)=C2CC)c1C`: the TGI with OVCAR-8 ovarian is 18.9 µM; in the test on A549 NSCLC it was above 100 µM; with RPMI-8226 leukemia, above 100 µM; in the test on CAKI-1 renal, 78.7 µM; with MCF7 breast, above 100 µM; with PC-3 prostate it was 63.3 µM.

For `CC(=O)NC1C(OCc2ccccc2)OC(CO)C(O)C1OCC(=O)NC(C)C(=O)NC(CCC(=O)NCCCCCNc1c2ccccc2nc2cccc([N+](=O)[O-])c12)C(N)=O` (stereo not drawn), the TGI in the test on OVCAR-8 ovarian was 0.017 µM; with A498 renal it was below 0.0001 µM; with A549 NSCLC it was 0.00142 µM; with RPMI-8226 leukemia, below 0.0001 µM; in the test with HCC-2998 colon, below 0.0001 µM; with CAKI-1 renal it was below 0.0001 µM. Besides, the TGI in the test with MCF7 breast and in the test with PC-3 prostate was below 0.0001 µM each time.

`OCC(O)C1OC2CC1Nc1ccccc1N2` (stereo not drawn): the TGI in the test on OVCAR-8 ovarian, in the test on A498 renal, in the test on A549 NSCLC, in the test with RPMI-8226 leukemia, in the test on HCC-2998 colon and in the test with CAKI-1 renal was above 100 µM throughout. Also, the TGI with PC-3 prostate is above 100 µM.

On to `COc1cccc2c1C1(O)C2CCCC12OCCCO2` (stereo not drawn), for which the TGI in the test with OVCAR-8 ovarian, in the test with A498 renal, with A549 NSCLC, in the test with RPMI-8226 leukemia, in the test with HCC-2998 colon and in the test on CAKI-1 renal was above 100 µM each time.

Take `COC(=O)c1nc(-c2ccc3c(n2)C(=O)C(N)=C(OC)C3=O)c(N)c(-c2ccc(OC)c(OC)c2O)c1C`: the TGI in the test with A498 renal came to 3.17 µM; in the test with A549 NSCLC, 2.76 µM; with RPMI-8226 leukemia, 3.6 µM; in the test on HCC-2998 colon, 0.221 µM; in the test on CAKI-1 renal, 3.28 µM; in the test with MCF7 breast it was 1.66 µM.

For `O=C1CCCC2=C1C(c1ccc3c(c1)OCO3)Nc1ccc3ccccc3c12` (stereo not drawn), the TGI in the test with OVCAR-8 ovarian, in the test with A498 renal, in the test with A549 NSCLC, in the test with RPMI-8226 leukemia, in the test on HCC-2998 colon and in the test on MDA-N was above 100 µM each time. Moreover, the TGI with CAKI-1 renal and with MCF7 breast was above 100 µM in each case.

`Nc1ccccc1NC(=O)CCCCCCC(=O)Nc1ccc2c(c1)/C(=C/c1ccc[nH]1)C(=O)N2`: the GI50 with OVCAR-8 ovarian is 5.59 µM; with A498 renal, 3.17 µM; in the test with A549 NSCLC, above 100 µM; in the test with RPMI-8226 leukemia it was 2.47 µM; with HCC-2998 colon, above 100 µM; with SR leukemia, 4.64 µM. Further, the GI50 with MCF7 breast was 3.6 µM; with PC-3 prostate it was 6.92 µM. Moreover, the TGI in the test on OVCAR-8 ovarian, in the test on A498 renal, in the test with A549 NSCLC, in the test on RPMI-8226 leukemia, in the test on HCC-2998 colon and in the test with SR leukemia was above 100 µM in each case. The TGI in the test on MCF7 breast and with PC-3 prostate was above 100 µM each time.

For the compound `CC1CCc2c(sc3ncnc(N/N=C/c4ccc(Cl)c(Cl)c4)c23)C1` (stereo not drawn), the TGI in the test with OVCAR-8 ovarian is 58 µM; with A549 NSCLC, 34.4 µM; in the test on RPMI-8226 leukemia it was above 100 µM; with HCC-2998 colon, above 100 µM; in the test on SR leukemia it was 33 µM; in the test with CAKI-1 renal, 56.6 µM.

In the case of `CCOC(=O)c1c2c(n3ccc(NC(=O)OC(C)(C)C)cc13)C(=O)c1ncccc1C2=O`, the GI50 with OVCAR-8 ovarian is 0.148 µM; in the test with A498 renal it was 0.0339 µM; in the test on A549 NSCLC, 0.186 µM; with RPMI-8226 leukemia, 0.387 µM; in the test on CAKI-1 renal, 0.0389 µM; with MCF7 breast, 0.0174 µM. Besides, in the test on PC-3 prostate, the GI50 is 0.25 µM. The TGI was 2.09 µM in the test with OVCAR-8 ovarian; 4.44 µM in the test with A498 renal; 1.25 µM in the test on A549 NSCLC; 3.16 µM with RPMI-8226 leukemia; 1.58 µM in the test on CAKI-1 renal; 0.202 µM in the test with MCF7 breast. Also, in the test on PC-3 prostate, the TGI was found to be 2.05 µM.

For the compound `CC(=O)NC1=C(C)C(=O)c2c(nc3n2CCC3O)C1=O` (stereo not drawn), the TGI in the test on OVCAR-8 ovarian was 68.1 µM; in the test on A498 renal, above 100 µM; with A549 NSCLC, above 100 µM; with RPMI-8226 leukemia, 50.6 µM; in the test on HCC-2998 colon it was above 100 µM; in the test on SR leukemia, 35 µM. The compound also gave a TGI in the test with CAKI-1 renal above 100 µM.

Take `N=S(=O)(c1ccccc1)c1ccccc1[N+](=O)[O-]` (stereo not drawn): the TGI with OVCAR-8 ovarian, with A498 renal, in the test with A549 NSCLC, in the test with RPMI-8226 leukemia, in the test on HCC-2998 colon and in the test on SR leukemia was above 100 µM in each case. Moreover, in the test with CAKI-1 renal, the TGI was above 100 µM.

Consider `CCNC(=O)/C=C/CCC#Cc1ccc(-c2ccc(-c3cccs3)s2)s1`, for which the TGI with OVCAR-8 ovarian, in the test on A549 NSCLC, in the test on RPMI-8226 leukemia, in the test on HCC-2998 colon, in the test on SR leukemia and in the test with CAKI-1 renal was above 100 µM each time.

The values above are taken from PubChem BioAssay (NCI).
